Like-named read-outs stand apart in the source and are kept apart here.
Tests used:
BCL9/β-catenin = biological target: T1, BCL9/β-catenin (Homo sapiens, UniProt P35222); assay: FP (BCL-9 avidity) fluorescence polarization competition assay with beta-catenin and FAP-Bcl9 tracer; type: binding
T1 sequence (P35222 1-781): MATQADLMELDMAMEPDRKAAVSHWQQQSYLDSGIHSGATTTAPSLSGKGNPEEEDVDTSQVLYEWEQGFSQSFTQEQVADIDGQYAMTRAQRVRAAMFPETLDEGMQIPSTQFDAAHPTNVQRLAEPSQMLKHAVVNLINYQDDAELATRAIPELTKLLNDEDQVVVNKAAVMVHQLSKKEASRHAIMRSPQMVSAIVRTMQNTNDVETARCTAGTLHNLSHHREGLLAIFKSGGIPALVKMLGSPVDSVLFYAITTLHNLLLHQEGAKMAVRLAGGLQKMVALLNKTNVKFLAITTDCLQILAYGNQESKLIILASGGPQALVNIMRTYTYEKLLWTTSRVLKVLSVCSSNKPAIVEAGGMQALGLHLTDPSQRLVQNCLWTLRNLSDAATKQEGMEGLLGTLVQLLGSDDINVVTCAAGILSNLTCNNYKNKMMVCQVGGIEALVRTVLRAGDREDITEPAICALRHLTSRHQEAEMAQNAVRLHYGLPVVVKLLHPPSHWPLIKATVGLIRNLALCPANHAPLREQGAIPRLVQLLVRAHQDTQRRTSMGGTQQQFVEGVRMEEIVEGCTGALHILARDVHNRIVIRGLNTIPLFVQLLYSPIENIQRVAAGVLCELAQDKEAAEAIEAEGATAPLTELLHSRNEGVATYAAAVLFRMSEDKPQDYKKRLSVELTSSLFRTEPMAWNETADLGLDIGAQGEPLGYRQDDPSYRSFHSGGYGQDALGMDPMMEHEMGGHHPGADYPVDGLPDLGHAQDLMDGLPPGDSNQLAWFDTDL
Protocol: Incubating for 2 hours on a horizontal shaker. Then adding 2 nM FAP-Bcl9 tracer to each well, and after incubation for 2H on a horizontal shaker, measuring the […].

HCT116 cells = assay: CCK8 cell viability assay in HCT116 cells; type: cell-based; settings: Homo sapiens, HCT-116; Table 2, HCT116 cells, 24 hours
Protocol: • 1. HCT116 cell plating
Digesting, counting, and plating the cells in 96-well plates (flat bottom, transparent) with 10,000 cells/100 ul DMEM (10% FBS) per well; • 2. Observing the state of cells on the next day, and start dosing after cell attachment is intact; • 3. diluting 514 with DMEM (2% FBS) by gradient dilution with concentrations of 20 μM, 10 μM, 5 μM, 2.5 μM, 1.25 μM, 0.625 μM, 0.3125 μM, 0.15625 μM, 0 μM (equal volume of DMSO); • 4. Adding 100 μl of the above different concentrations of 514 to each well, and making two repeat wells for each concentration gradient; leaving three blank wells (only adding DMEM 2% FBS culture medium without cells). • 5. Culturing at 37° C. for 24 hours; • 6. Adding 10 μl CCK-8 enhanced solution to each well: due to the small amount added of CCK-8 in each well, it may cause errors resulting from the reagent staining on the wall of the well. It is recommended to gently tap the culture plate after adding the reagent to help mixing; • 7. Incubating in the incubator for 0.5-4 hours: the amount of Formazan formed is not the same for different cell types, in most cases, incubation for 1 hour is enough. If the color development is not enough, incubation can be continued to determine optimal conditions. • 8. Measuring the absorbance at 450 nm and 600 nm (excluding the interference of the background color of the reagent and the absorbance value of the well plate itself); • 9. Using OD450 nm-OD600 nm for the final absorbance, and calculating the inhibition rate:
[formula] • As: absorbance of experimental wells (medium containing cells, CCK-8, drug to be tested); • Ac: absorbance of control wells (medium containing cells, CCK-8, and no drug to be tested); • Ab: absorbance of blank wells (medium without cells and drug to be tested, CCK-8). (3) qPCR • 1. HCT116 cell plating

Human AXIN2 = assay: qPCR of AXIN2 expression in HCT116 cells; type: cell-based; settings: HCT-116, Table 2, HCT116 cells, AXIN2 vs β-actin, 24 hours
Protocol: Cells were digesting, counting, and plating cells in 24-well plates (flat bottom, clear), with 3×10^5 cells/500 ul DMEM (10% FBS) per well. • 2. Observing the state of cells on the next day, and start dosing after cell attachment is intact
Diluting 514 with DMEM (2% FBS) by gradient dilution with concentrations of 20 μM, 10 μM, 5 μM, 2.5 μM, 1.25 μM, 0.625 μM, 0.3125 μM, 0.15625 μM, 0 μM (equal volume DMSO)
Adding 500 μl of the above different concentrations of 514 to each well, and setting a single well for each concentration gradient except three repeat wells for the 0 μM concentration (double wells for qPCR). • 3. Incubating at 37° C. for 24 hours • 4. Discarding the supernatant, washing once with PBS, and adding trizol at 500/well • 5. RNA extraction (step omitted) • 6. Reverse transcription (step omitted, according to the kit) • 7. qPCR (step omitted, following the kit steps)
• 8. calculation of inhibition rate

[1] = Table 1.2, compounds 7-16, read-out: BCL-9 avidity FP IC50
[2] = Table 2, FP (BCL-9 affinity), read-out: FP
[3] = Table 1.3, compounds 15-20, read-out: BCL-9 avidity FP IC50
[4] = Table 1.1, compounds 1-6, read-out: BCL-9 avidity FP IC50

Row | SMILES | IC50 (BCL9/β-catenin; [1]) [µM] | IC50 (BCL9/β-catenin; [2]) [µM] | IC50 (HCT116 cells) [µM] | IC50 (Human AXIN2) [µM] | IC50 (BCL9/β-catenin; [3]) [µM] | IC50 (BCL9/β-catenin; [4]) [µM]
1 | CC(C)(Oc1ccc(Cl)c(N2CCC[C@@H](C(=O)N(Cc3ccc(C4=CCCCC4)cc3)C3CC3)C2)c1)C(=O)N1CCNCC1 [Compound 10, (3R)-1-(2-chloro-5-{[2-methyl-1-oxo-1-(piperazin-1-yl)propan-2-yl]oxy}phenyl)-N-{[4-(cyclohex-1-en-1-yl)phenyl]methyl}-N-cyclopropylpiperidine-3-carboxamide] | 2.7 | 2.7 | 10 to 20 | 10 to 20 | – | –
2 | CC(C)(Nc1cccc(N2CCC[C@@H](C(=O)N(Cc3ccc(-c4cn[nH]c4)cc3)C3CC3)C2)c1)C(=O)N1CCNCC1 [Compound 15, (3R)-N-cyclopropyl-1-(3-{[2-methyl-1-oxo-1-(piperazin-1-yl)propan-2-yl]amino}phenyl)-N-{[4-(1H-pyrazol-4-yl)phenyl]methyl}piperidine-3-carboxamide] | – | 10 to 20 | 2.42 | 10 to 20 | 10 to 20 | –
3 | CC(C)(Oc1cccc(N2CC(C(=O)N(Cc3ccc(C4=CCCCC4)cc3)C3CC3)CC(c3ccccc3)C2)c1)C(=O)N1CCNCC1 (racemic) [Compound 6, N-{[4-(cyclohex-1-en-1-yl)phenyl]methyl}-N-cyclopropyl-1-(3-{[2-methyl-1-oxo-1-(piperazin-1-yl)propan-2-yl]oxy}phenyl)-5-phenylpiperidine-3-carboxamide] | – | 7.75 | 10 to 20 | 10 to 20 | – | 7.75
4 | CC(C)(Oc1cccc(N2CC(C(=O)N(Cc3ccc(-c4cn[nH]c4)cc3)C3CC3)CC(c3ccccc3)C2)c1)C(=O)N1CCNCC1 (centres unmarked) [Compound 2, N-cyclopropyl-1-(3-{[2-methyl-1-oxo-1-(piperazin-1-yl)propan-2-yl]oxy}phenyl)-5-phenyl-N-{[4-(1H-pyrazol-4-yl)phenyl]methyl}piperidine-3-carboxamide] | – | 10 to 50 | 10 to 50 | 10 to 20 | – | > 10
5 | CC(C)(Oc1ccc(Cl)c(N2CCC[C@@H](C(=O)N(Cc3ccc(-c4c[nH]c5ncccc45)cc3)C3CC3)C2)c1)C(=O)N1CCNCC1 [Compound 11, (3R)-1-(2-chloro-5-{[2-methyl-1-oxo-1-(piperazin-1-yl)propan-2-yl]oxy}phenyl)-N-cyclopropyl-N-[(4-{1H-pyrrolo[2,3-b]pyridin-3-yl}phenyl)methyl]piperidine-3-carboxamide] | 2.44 | 2.44 | 10 to 20 | 10 to 20 | – | –
6 | CN(c1cccc(N2CCC[C@@H](C(=O)N(Cc3ccc(-c4cn[nH]c4)cc3)C3CC3)C2)c1)C(C)(C)C(=O)N1CCNCC1 [Compound 16, (3R)-N-cyclopropyl-1-(3-{methyl[2-methyl-1-oxo-1-(piperazin-1-yl)propan-2-yl]amino}phenyl)-N-{[4-(1H-pyrazol-4-yl)phenyl]methyl}piperidine-3-carboxamid] | – | 10 to 20 | 2.79 | 10 to 20 | 10 to 20 | –
7 | CC(C)(Oc1cccc(N2CCC[C@@H](NC(=O)N(Cc3ccc(-c4cn[nH]c4)cc3)C3CC3)C2)c1)C(=O)NCCN [Compound 18, N-(2-aminoethyl)-2-{3-[(3R)-3-{[cyclopropyl({[4-(1H-pyrazol-4-yl)phenyl]methyl})carbamoyl]amino}piperidin-1-yl]phenoxy}-2-methylpropanamide] | – | 10 to 20 | 3.46 | 2.54 | 10 to 20 | –
8 | CC(C)(Oc1cccc(N2CC(C(=O)N(Cc3ccc(-c4c[nH]c5ncccc45)cc3)C3CC3)CC(c3ccccc3)C2)c1)C(=O)N1CCNCC1 (racemic) [Compound 3, N-cyclopropyl-1-(3-{[2-methyl-1-oxo-1-(piperazin-1-yl)propan-2-yl]oxy}phenyl)-5-phenyl-N-[(4-{1H-pyrrolo[2,3-b]pyridin-3-yl}phenyl)methyl]piperidine-3-carboxamide] | – | 2.76 | 10 to 20 | 10 to 20 | – | 2.76
9 | CC(C)C1CC=C(c2ccc(CN(C(=O)C3CC(c4ccccc4)CN(c4cccc(OC(C)(C)C(=O)N5CCNCC5)c4)C3)C3CC3)cc2)CC1 (racemic) [Compound 4, N-cyclopropyl-1-(3-{[2-methyl-1-oxo-1-(piperazin-1-yl)propan-2-yl]oxy}phenyl)-5-phenyl-N-({4-[4-(propan-2-yl)cyclohex-1-en-1-yl]phenyl}methyl)piperidine-3-carboxamide] | – | 10 to 50 | 10 to 50 | 10 to 50 | – | –

More lines, now with the values ahead:

Row | IC50 (BCL9/β-catenin; [1]) [µM] | IC50 (BCL9/β-catenin; [2]) [µM] | IC50 (HCT116 cells) [µM] | IC50 (Human AXIN2) [µM] | IC50 (BCL9/β-catenin; [3]) [µM] | IC50 (BCL9/β-catenin; [4]) [µM] | SMILES
10 | – | 10 to 50 | 10 to 50 | 10 to 50 | – | – | CC(C)(Oc1cccc(N2CCC[C@@H](C(=O)N(Cc3ccc(C4=CCCCC4)c(Cl)c3)C3CC3)C2)c1)C(=O)N1CCNCC1 [Compound 13, (3R)-N-{[3-chloro-4-(cyclohex-1-en-1-yl)phenyl]methyl}-N-cyclopropyl-1-(3-{[2-methyl-1-oxo-1-(piperazin-1-yl)propan-2-yl]oxy}phenyl)piperidine-3-carboxamide]
11 | – | 10 to 50 | 10 to 50 | 10 to 50 | – | – | CC(C)(Oc1cccc(N2CCC[C@@H](C(=O)N(Cc3ccc(-c4ccccc4)c(Cl)c3)C3CC3)C2)c1)C(=O)N1CCNCC1 [Compound 14, (3R)-N-[(3-chloro-4-phenylphenyl)methyl]-N-cyclopropyl-1-(3-{[2-methyl-1-oxo-1-(piperazin-1-yl)propan-2-yl]oxy}phenyl)piperidine-3-carboxamide]
12 | > 10 | 10 to 20 | 10 to 50 | 10 to 50 | – | – | CC(C)(Oc1ccc(Cl)c(N2CCC[C@@H](C(=O)N(Cc3ccc(-c4cn[nH]c4)cc3)C3CC3)C2)c1)C(=O)N1CCNCC1 [Compound 9]
13 | > 10 | 10 to 20 | 10 to 50 | 10 to 20 | – | – | CC(C)(Oc1cccc(N2CCC[C@@H](C(=O)N(Cc3ccc(-c4cn[nH]c4)c(Cl)c3)C3CC3)C2)c1)C(=O)N1CCNCC1 [Compound 12, (3R)-N-{[3-chloro-4-(1H-pyrazol-4-yl)phenyl]methyl}-N-cyclopropyl-1-(3-{[2-methyl-1-oxo-1-(piperazin-1-yl)propan-2-yl]oxy}phenyl)piperidine-3-carboxamide]
14 | – | 6.2 | 10 to 20 | 10 to 20 | – | 2.25 | CC(C)(Oc1cccc(N2CC(C(=O)N(Cc3ccc(-c4ccccc4)cc3)C3CC3)CC(c3ccccc3)C2)c1)C(=O)N1CCNCC1 (racemic) [Compound 5, N-cyclopropyl-1-(3-{[2-methyl-1-oxo-1-(piperazin-1-yl)propan-2-yl]oxy}phenyl)-5-phenyl-N-[(4-phenylphenyl)methyl]piperidine-3-carboxamide]
